Results taken from ChEMBL document CHEMBL5058649, “Data for DCP probe BAY 1816032” (2022).
pKd, pKi: −log10 of the molar value.

Assays:
[1] = biological target: 5-hydroxytryptamine receptor 1A (Homo sapiens, UniProt P08908); test: GPCRScan assay: inhibition of 5-HT1A; set-up: radioligand conc. used [nm] 0.5 – 1.0, parental cells stable CHO
Homo sapiens = organism: Homo sapiens; test: Inhibition of Phosphodiesterase PDE4 at compound concentration of 10.0 uM in the Eurofins-Panlabs enzyme assay (Eurofins_assay_154000); assay type: protein assay; set-up: substrate with concentration 1.01 uM [3 H]cAMP + cAMP, incubation time 20 min, incubation temperature 25 C; settings: Compound concentration 10.0 uM
Rattus norvegicus = organism: Rattus norvegicus; test: Inhibition of Glycine, Strychnine-Sensitive at 10 µM in the Eurofins-Panlabs radioligand binding assay (Eurofins_assay_239000); settings: Compound concentration 10.0 uM
[2] = biological target: Prostaglandin G/H synthase 2 (Homo sapiens) (UniProt P35354); test: Cyclooxygenase COX-2 Eurofins-Panlabs enzyme assay; set-up: substrate with concentration; settings: Compound concentration 10.0 uM
[3] = biological target: Epithelial discoidin domain-containing receptor 1 (Homo sapiens, UniProt Q08345); test: DDR1 DiscoveRx kinase panel
[4] = biological target: Ephrin type-A receptor 1 (Homo sapiens) (UniProt P21709); test: EPHA1 DiscoveRx kinase panel; settings: Compound concentration 1.0 uM
[5] = biological target: Activin receptor type-1B (Homo sapiens) (UniProt P36896); test: ACVR1B DiscoveRx kinase panel; settings: Compound concentration 1.0 uM
[6] = biological target: Bone morphogenetic protein receptor type-1A (Homo sapiens) (UniProt P36894); test: BMPR1A DiscoveRx kinase panel; settings: Compound concentration 1.0 uM
[7] = biological target: Casein kinase I isoform gamma-1 (Homo sapiens) (UniProt Q9HCP0); test: CSNK1G1 DiscoveRx kinase panel; settings: Compound concentration 1.0 uM
[8] = biological target: Serine/threonine-protein kinase 38-like (Homo sapiens) (UniProt Q9Y2H1); test: NDR2 DiscoveRx kinase panel; settings: Compound concentration 1.0 uM
[9] = biological target: Serine/threonine-protein kinase Nek7 (Homo sapiens) (UniProt Q8TDX7); test: NEK7 DiscoveRx kinase panel; settings: Compound concentration 1.0 uM
[10] = biological target: Mitogen-activated protein kinase 11 (Homo sapiens) (UniProt Q15759); test: p38-beta DiscoveRx kinase panel; settings: Compound concentration 1.0 uM
[11] = biological target: Mitogen-activated protein kinase 12 (Homo sapiens) (UniProt P53778); test: p38-gamma DiscoveRx kinase panel; settings: Compound concentration 1.0 uM
[12] = biological target: Maternal embryonic leucine zipper kinase (Homo sapiens) (UniProt Q14680); test: MELK DiscoveRx kinase panel; settings: Compound concentration 1.0 uM
[13] = biological target: Ephrin type-A receptor 3 (Homo sapiens) (UniProt P29320); test: EPHA3 DiscoveRx kinase panel; settings: Compound concentration 1.0 uM
[14] = biological target: Mitogen-activated protein kinase kinase kinase 12 (Homo sapiens) (UniProt Q12852); test: DLK DiscoveRx kinase panel; settings: Compound concentration 1.0 uM
[15] = biological target: Ephrin type-A receptor 6 (Homo sapiens) (UniProt Q9UF33); test: EPHA6 DiscoveRx kinase panel; settings: Compound concentration 1.0 uM
[16] = biological target: Phosphatidylinositol 5-phosphate 4-kinase type-2 beta (Homo sapiens) (UniProt P78356); test: PIP5K2B DiscoveRx kinase panel; settings: Compound concentration 1.0 uM
[17] = biological target: MAP kinase-activated protein kinase 2 (Homo sapiens) (UniProt P49137); test: MAPKAPK2 DiscoveRx kinase panel; settings: Compound concentration 1.0 uM
[18] = biological target: Serine/threonine-protein kinase Chk1 (Homo sapiens) (UniProt O14757); test: CHEK1 DiscoveRx kinase panel; settings: Compound concentration 1.0 uM
[19] = biological target: Ephrin type-B receptor 4 (Homo sapiens) (UniProt P54760); test: EPHB4 DiscoveRx kinase panel; settings: Compound concentration 1.0 uM
[20] = biological target: Serine/threonine-protein kinase VRK2 (Homo sapiens) (UniProt Q86Y07); test: VRK2 DiscoveRx kinase panel; settings: Compound concentration 1.0 uM
[21] = biological target: Proto-oncogene tyrosine-protein kinase receptor Ret (Homo sapiens) (UniProt P07949); test: RET DiscoveRx kinase panel; settings: Compound concentration 1.0 uM
[22] = biological target: Receptor-interacting serine/threonine-protein kinase 1 (Homo sapiens) (UniProt Q13546); test: RIPK1 DiscoveRx kinase panel; settings: Compound concentration 1.0 uM
[23] = biological target: Serine/threonine-protein kinase TNNI3K (Homo sapiens) (UniProt Q59H18); test: TNNI3K DiscoveRx kinase panel; settings: Compound concentration 1.0 uM
[24] = biological target: Ribosomal protein S6 kinase alpha-3 (Homo sapiens) (UniProt P51812); test: RSK2(Kin.Dom.2-C-terminal) DiscoveRx kinase panel; settings: Compound concentration 1.0 uM
[25] = biological target: Serine/threonine-protein kinase Sgk3 (Homo sapiens) (UniProt Q96BR1); test: SGK3 DiscoveRx kinase panel; settings: Compound concentration 1.0 uM
[26] = biological target: NUAK family SNF1-like kinase 2 (Homo sapiens) (UniProt Q9H093); test: SNARK DiscoveRx kinase panel; settings: Compound concentration 1.0 uM
[27] = biological target: Bone morphogenetic protein receptor type-1B (Homo sapiens) (UniProt O00238); test: BMPR1B DiscoveRx kinase panel; settings: Compound concentration 1.0 uM
[28] = biological target: Calcium/calmodulin-dependent protein kinase type II subunit gamma (Homo sapiens) (UniProt Q13555); test: CAMK2G DiscoveRx kinase panel; settings: Compound concentration 1.0 uM
[29] = biological target: Cyclin-dependent kinase 13 (Homo sapiens) (UniProt Q14004); test: CDC2L5 DiscoveRx kinase panel; settings: Compound concentration 1.0 uM
[30] = biological target: Epidermal growth factor receptor (Homo sapiens) (UniProt P00533); test: EGFR DiscoveRx kinase panel; settings: Compound concentration 1.0 uM
[31] = biological target: G protein-coupled receptor kinase 3 (Homo sapiens) (UniProt P35626); test: GRK3 DiscoveRx kinase panel; settings: Compound concentration 1.0 uM
[32] = biological target: Tyrosine-protein kinase JAK2 (Homo sapiens) (UniProt O60674); test: JAK2(JH1domain-catalytic) DiscoveRx kinase panel; settings: Compound concentration 1.0 uM
[33] = biological target: Myosin-IIIa (Homo sapiens) (UniProt Q8NEV4); test: MYO3A DiscoveRx kinase panel; settings: Compound concentration 1.0 uM
[34] = biological target: Serine/threonine-protein kinase Nek10 (Homo sapiens) (UniProt Q6ZWH5); test: NEK10 DiscoveRx kinase panel; settings: Compound concentration 1.0 uM
[35] = biological target: Mitogen-activated protein kinase 14 (Homo sapiens) (UniProt Q16539); test: p38-alpha DiscoveRx kinase panel; settings: Compound concentration 1.0 uM
[36] = biological target: Platelet-derived growth factor receptor alpha (Homo sapiens) (UniProt P16234); test: PDGFRA DiscoveRx kinase panel; settings: Compound concentration 1.0 uM
[37] = biological target: Phosphorylase b kinase gamma catalytic chain, skeletal muscle/heart isoform (Homo sapiens) (UniProt Q16816); test: PHKG1 DiscoveRx kinase panel; settings: Compound concentration 1.0 uM
[38] = biological target: cAMP-dependent protein kinase catalytic subunit beta (Homo sapiens) (UniProt P22694); test: PKAC-beta DiscoveRx kinase panel; settings: Compound concentration 1.0 uM
[39] = biological target: Ribosomal protein S6 kinase alpha-5 (Homo sapiens) (UniProt O75582); test: RPS6KA5(Kin.Dom.1-N-terminal) DiscoveRx kinase panel; settings: Compound concentration 1.0 uM
[40] = biological target: Non-receptor tyrosine-protein kinase TYK2 (Homo sapiens) (UniProt P29597); test: TYK2(JH1domain-catalytic) DiscoveRx kinase panel; settings: Compound concentration 1.0 uM
[41] = biological target: C-X-C chemokine receptor type 2 (Homo sapiens) (UniProt P25025); test: Chemokine CXCR2 (IL-8RB) Eurofins-Panlabs radioligand binding assay; settings: Compound concentration 10.0 uM
HT1197 = test: HT-1197 cell line Proliferation assay; assay type: functional, Homo sapiens; settings: time 4 day
HeLa = test: HeLa cell line Proliferation assay; assay type: functional, Homo sapiens; settings: time 4 day
[42] = biological target: Sigma intracellular receptor 2 (Homo sapiens, UniProt Q5BJF2); settings: Compound concentration 10.0 uM
[43] = biological target: D(2) dopamine receptor (Homo sapiens) (UniProt P14416); settings: Compound concentration 10.0 uM
[44] = biological target: Histamine H1 receptor (Homo sapiens) (UniProt P35367); settings: Compound concentration 10.0 uM
[45] = biological target: Sodium-dependent dopamine transporter (Homo sapiens, UniProt Q01959); settings: Compound concentration 10.0 uM
[46] = biological target: D(2) dopamine receptor (Homo sapiens) (UniProt P14416); settings: Compound concentration 10.0 uM; remark: listed apart in the source

Sequence of D(2) dopamine receptor (Homo sapiens) (P14416 whole entry): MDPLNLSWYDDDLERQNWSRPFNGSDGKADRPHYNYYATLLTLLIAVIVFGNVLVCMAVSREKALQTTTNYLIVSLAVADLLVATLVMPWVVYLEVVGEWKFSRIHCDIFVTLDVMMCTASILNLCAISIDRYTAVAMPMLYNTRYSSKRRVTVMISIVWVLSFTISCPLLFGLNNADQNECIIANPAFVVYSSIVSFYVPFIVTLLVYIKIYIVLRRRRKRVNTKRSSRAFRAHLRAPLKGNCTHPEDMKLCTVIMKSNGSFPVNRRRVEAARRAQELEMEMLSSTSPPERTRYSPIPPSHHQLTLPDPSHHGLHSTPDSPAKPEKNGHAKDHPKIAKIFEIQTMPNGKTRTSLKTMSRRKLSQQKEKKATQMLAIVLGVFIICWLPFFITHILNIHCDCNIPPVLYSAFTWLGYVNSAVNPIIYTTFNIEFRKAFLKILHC
Sequence of Epithelial discoidin domain-containing receptor 1 (Q08345 whole entry, the tested form may be a part): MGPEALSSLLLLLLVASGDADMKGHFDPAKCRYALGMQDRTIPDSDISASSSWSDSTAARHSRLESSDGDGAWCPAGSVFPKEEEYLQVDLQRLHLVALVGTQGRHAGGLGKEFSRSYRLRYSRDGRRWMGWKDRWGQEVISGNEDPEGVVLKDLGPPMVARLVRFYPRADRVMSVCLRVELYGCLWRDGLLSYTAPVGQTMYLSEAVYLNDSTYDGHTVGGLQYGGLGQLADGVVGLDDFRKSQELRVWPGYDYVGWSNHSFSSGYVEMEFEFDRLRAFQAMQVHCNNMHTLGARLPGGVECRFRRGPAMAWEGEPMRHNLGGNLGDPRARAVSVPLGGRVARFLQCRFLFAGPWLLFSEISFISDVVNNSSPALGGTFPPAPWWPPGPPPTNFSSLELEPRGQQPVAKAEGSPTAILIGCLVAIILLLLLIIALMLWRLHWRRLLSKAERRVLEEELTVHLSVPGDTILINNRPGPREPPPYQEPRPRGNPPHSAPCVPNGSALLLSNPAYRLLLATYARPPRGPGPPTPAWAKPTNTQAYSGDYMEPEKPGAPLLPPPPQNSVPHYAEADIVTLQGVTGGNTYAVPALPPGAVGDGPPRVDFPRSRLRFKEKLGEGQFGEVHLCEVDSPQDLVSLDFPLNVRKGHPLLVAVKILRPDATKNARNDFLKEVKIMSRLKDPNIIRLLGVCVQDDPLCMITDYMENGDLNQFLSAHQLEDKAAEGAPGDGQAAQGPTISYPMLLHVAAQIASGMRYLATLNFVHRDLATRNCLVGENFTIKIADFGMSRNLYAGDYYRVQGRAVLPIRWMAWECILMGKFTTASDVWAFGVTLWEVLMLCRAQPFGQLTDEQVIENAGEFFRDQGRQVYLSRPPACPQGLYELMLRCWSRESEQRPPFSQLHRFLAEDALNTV
Sequence of Phosphorylase b kinase gamma catalytic chain, skeletal muscle/heart isoform (Homo sapiens) (Q16816 whole entry, looked up, canonical isoform): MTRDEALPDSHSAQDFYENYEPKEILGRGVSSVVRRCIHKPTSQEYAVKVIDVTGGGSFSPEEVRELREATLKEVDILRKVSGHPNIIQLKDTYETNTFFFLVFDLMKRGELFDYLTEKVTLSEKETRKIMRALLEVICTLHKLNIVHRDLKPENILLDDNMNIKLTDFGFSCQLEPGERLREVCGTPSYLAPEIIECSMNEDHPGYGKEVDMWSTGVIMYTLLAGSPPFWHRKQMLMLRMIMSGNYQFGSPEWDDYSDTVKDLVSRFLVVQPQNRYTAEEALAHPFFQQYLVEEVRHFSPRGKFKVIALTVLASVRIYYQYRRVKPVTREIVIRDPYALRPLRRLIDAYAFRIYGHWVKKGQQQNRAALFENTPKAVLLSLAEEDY
Sequence of Ephrin type-A receptor 3 (Homo sapiens) (P29320 whole entry): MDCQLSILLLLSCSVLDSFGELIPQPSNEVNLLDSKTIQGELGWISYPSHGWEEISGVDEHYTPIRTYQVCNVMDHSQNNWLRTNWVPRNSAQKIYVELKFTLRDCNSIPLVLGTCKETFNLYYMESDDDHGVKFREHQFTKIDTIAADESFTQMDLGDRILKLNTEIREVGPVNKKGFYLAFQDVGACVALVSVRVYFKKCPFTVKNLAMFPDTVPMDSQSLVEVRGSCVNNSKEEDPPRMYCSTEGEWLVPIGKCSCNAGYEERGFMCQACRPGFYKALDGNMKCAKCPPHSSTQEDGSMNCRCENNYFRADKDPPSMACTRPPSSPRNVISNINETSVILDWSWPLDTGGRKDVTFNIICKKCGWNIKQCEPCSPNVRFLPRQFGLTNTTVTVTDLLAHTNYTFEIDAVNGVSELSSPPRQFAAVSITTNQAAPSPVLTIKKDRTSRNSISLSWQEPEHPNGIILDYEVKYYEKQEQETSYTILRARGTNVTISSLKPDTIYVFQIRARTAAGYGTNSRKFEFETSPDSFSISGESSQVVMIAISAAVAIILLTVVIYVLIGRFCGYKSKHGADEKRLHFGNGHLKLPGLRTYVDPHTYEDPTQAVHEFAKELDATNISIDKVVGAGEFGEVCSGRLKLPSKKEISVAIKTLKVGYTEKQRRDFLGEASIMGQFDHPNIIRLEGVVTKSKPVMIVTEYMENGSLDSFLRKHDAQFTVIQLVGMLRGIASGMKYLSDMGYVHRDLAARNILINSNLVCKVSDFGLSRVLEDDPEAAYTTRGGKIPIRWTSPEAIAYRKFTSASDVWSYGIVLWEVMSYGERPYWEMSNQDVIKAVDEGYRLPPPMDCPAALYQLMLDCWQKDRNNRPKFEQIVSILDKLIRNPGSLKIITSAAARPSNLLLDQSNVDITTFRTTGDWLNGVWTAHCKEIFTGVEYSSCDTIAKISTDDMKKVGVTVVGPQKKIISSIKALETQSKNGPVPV
Sequence of Cyclin-dependent kinase 13 (Homo sapiens) (Q14004 whole entry, looked up): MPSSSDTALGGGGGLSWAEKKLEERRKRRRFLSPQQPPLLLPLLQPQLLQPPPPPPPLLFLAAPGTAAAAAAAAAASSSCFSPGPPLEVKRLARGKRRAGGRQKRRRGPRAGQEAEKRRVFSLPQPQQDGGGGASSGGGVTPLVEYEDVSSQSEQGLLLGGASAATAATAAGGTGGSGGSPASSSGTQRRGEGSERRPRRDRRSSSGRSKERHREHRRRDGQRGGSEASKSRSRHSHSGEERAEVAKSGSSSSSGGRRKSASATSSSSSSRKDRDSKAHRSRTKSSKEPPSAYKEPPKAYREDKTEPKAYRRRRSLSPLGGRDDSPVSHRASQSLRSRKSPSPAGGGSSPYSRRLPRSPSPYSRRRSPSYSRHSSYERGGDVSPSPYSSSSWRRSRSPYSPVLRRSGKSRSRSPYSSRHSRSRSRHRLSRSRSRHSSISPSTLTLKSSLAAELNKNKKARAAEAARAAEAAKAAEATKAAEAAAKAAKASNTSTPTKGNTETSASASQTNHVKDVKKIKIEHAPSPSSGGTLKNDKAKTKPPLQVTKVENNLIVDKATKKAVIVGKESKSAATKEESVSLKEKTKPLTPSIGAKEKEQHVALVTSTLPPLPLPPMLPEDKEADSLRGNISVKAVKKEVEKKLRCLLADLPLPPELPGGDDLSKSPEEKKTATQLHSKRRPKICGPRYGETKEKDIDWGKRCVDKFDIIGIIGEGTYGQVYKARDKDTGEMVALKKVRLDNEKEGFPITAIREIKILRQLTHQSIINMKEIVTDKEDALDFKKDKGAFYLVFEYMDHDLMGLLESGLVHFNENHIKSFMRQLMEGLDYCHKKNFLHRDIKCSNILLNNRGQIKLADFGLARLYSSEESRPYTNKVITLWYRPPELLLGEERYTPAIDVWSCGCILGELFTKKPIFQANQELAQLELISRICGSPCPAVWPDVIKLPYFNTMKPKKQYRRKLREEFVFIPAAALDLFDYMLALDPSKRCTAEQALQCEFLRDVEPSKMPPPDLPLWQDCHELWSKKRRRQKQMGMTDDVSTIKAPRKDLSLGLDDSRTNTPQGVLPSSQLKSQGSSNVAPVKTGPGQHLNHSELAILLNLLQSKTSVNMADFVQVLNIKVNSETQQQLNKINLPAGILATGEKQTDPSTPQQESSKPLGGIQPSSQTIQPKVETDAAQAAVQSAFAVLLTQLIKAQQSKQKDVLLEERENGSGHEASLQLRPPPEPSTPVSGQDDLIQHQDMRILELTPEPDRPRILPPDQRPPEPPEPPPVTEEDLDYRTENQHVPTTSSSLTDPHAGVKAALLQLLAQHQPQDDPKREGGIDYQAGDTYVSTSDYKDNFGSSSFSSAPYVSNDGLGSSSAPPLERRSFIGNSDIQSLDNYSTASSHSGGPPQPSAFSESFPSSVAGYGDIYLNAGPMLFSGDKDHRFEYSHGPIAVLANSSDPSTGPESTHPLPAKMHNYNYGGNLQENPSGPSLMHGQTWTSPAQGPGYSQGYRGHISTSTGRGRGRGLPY
Sequence of Serine/threonine-protein kinase Chk1 (Homo sapiens) (O14757 whole entry): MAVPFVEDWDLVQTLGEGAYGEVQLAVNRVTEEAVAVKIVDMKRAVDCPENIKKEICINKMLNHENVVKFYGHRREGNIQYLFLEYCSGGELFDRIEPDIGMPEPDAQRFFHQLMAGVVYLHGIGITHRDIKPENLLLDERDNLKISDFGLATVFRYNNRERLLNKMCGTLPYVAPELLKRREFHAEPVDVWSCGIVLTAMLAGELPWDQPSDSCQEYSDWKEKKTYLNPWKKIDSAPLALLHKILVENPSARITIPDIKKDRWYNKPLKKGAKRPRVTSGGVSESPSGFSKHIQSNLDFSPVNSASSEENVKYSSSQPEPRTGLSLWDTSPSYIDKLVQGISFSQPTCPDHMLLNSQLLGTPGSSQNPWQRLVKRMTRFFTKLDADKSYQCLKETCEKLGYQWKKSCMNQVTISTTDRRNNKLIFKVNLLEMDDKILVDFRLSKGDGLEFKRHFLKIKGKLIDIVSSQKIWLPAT
Sequence of C-X-C chemokine receptor type 2 (Homo sapiens) (P25025 whole entry): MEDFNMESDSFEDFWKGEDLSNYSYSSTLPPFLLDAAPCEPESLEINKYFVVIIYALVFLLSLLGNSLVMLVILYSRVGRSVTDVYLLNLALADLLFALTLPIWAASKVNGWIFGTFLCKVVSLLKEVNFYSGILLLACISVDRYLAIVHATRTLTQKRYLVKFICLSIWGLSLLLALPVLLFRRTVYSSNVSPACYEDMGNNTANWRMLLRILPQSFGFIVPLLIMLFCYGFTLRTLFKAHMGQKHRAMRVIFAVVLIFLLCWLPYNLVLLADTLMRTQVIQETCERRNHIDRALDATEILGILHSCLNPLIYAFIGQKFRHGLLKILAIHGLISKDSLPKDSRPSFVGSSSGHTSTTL

SMILES: COc1cnccc1Nc1nc(-c2nn(Cc3c(F)cc(OCCO)cc3F)c3ccccc23)ncc1OC
- pKi [1]: 5.03
- inhibition (Homo sapiens): 52%
- inhibition (Rattus norvegicus): 0%
- inhibition [2]: -9%
- pKd [3]: 5.64
- residual activity ([3]; Compound concentration 1.0 uM): 21%
- residual activity [4]: 65%
- residual activity [5]: 72%
- residual activity [6]: 74%
- residual activity [7]: 74%
- residual activity [8]: 78%
- residual activity [9]: 78%
- residual activity [10]: 82%
- residual activity [11]: 83%
- residual activity [12]: 84%
- residual activity [13]: 85%
- residual activity [14]: 87%
- residual activity [15]: 89%
- residual activity [16]: 91%
- residual activity [17]: 92%
- residual activity [18]: 93%
- residual activity [19]: 93%
- residual activity [20]: 94%
- residual activity [21]: 97%
- residual activity [22]: 97%
- residual activity [23]: 97%
- residual activity [24]: 98%
- residual activity [25]: 99%
- residual activity [26]: 99%
- residual activity [27]: 100%
- residual activity [28]: 100%
- residual activity [29]: 100%
- residual activity [30]: 100%
- residual activity [31]: 100%
- residual activity [32]: 100%
- residual activity [33]: 100%
- residual activity [34]: 100%
- residual activity [35]: 100%
- residual activity [36]: 100%
- residual activity [37]: 100%
- residual activity [38]: 100%
- residual activity [39]: 100%
- residual activity [40]: 100%
- inhibition [41]: -3%
- Cell Proliferation IC50 (HT1197): 4.9 µM
- Cell Proliferation IC50 (HeLa): 1.6 µM
- inhibition [42]: 13%
- inhibition [43]: 17%
- inhibition [44]: 12%
- inhibition [45]: -5%
- inhibition [46]: 4%
